The text below walks through data of paper PMC7984888, “Inhibitory Activity of Pyrroloisoxazolidine Derivatives against Chlamydia trachomatis” (BioMed Research International, 2021).

One assay has as its system C. trachomatis L2. The assay is described as follows: Inclusion body immunofluorescence staining. Type of assay: cell-based, Chlamydia trachomatis. The following applies: for Inclusions at the highest concentration: 32 μM, C. trachomatis L2, HeLa cells, 36 hpi; for Formation (number) and growth (size) of C. trachomatis L2 inclusions: HeLa cells, MOI 0.2, 36 hpi, compared with 0.5% DMSO. Here is the method:
Cell monolayers seeded onto coverslips in a 24-well plate were infected with C. trachomatis at a multiplicity of infection (MOI) of 0.2 inclusion-forming units (IFU) per cell. Unless noted, individual compound was added into culture medium at indicated concentrations simultaneously at the time of inoculation. 0.5% DMSO was used as negative control and 11.25 μM tetracycline (Sigma-Aldrich) as positive control. For C. trachomatis D, an additional centrifugation (900 × g at room temperature for 1 h) was applied to facilitate the infection. At 36 hours postinfection (hpi), infected cells were fixed by precooled methanol and then subjected to sequential staining processed with a primary antibody and a FITC-conjugated secondary antibody. Evans blue was used as cytoplasm counterstain. Images were shot by an Olympus IX51 fluorescence microscope. […] At the highest concentration of 32 μM, inclusions were few and tiny, analogous to the positive control tetracycline (final concentration, 11.25 μM). In addition, the reduction on the production of progeny EBs was consistent with that of the inclusion number and size (Figure 1(b)). The direct inhibitory effect was also analyzed for C. trachomatis D. Happened as expected, changes in inclusion size and number and the progeny production that response to both chemicals are highly similar to those observed for C. trachomatis L2, with slightly weaker effect (Figures 1(a) and 1(c)).  Figure 1 Inhibition effect of compounds 1 and 2 on C. trachomatis. HeLa cells were infected with C. trachomatis L2 or D at an MOI of 0.2 in the presence of 0.5% DMSO, 11.25 μM tetracycline, or various concentrations of individual compound. Cells were either fixed or lysed for determination of infectious progeny EBs at 36 hpi. (a) Representative immunofluorescence microscopy images (scale bar = 100 μm). Inclusions were stained with a polyclonal anti-MoPn antibody that cross-reacts with C. trachomatis L2 and D (green), and cells were counterstained with Evans blue (red). (b, c) The percent inhibition of production of infectious progeny EBs was calculated based on data in compound-treated samples relative to DMSO-treated control. Data are presented as mean ± SD of three independent assays.

Assay [1] relates to Chlamydia trachomatis serovar D (strain UW-3/CX). The assay is described as follows: Infectious progeny inhibition assay, C. trachomatis D. Format: cell-based. Conditions: generation of infectious progeny EBs in HeLa cells, MOI 0.2, 36 hpi, 1 to 32 μM, read-out: IC50 (μM) Mean (95% confidence interval) Ct D. Here is the method: (§1) Chlamydia trachomatis serovars D (strain UW-3/CX) and L2 (strain 434/Bu) were purchased from ATCC. HeLa cells purchased from ATCC were routinely cultured in DMEM supplemented with 10% heat-inactivated FBS (Sigma-Aldrich) and 10 μg/mL gentamicin at 37°C in a humidified atmosphere of 5% and were used for chlamydial propagation and cell culture experiments. EBs were purified by Renografin density gradient and stored in sucrose-phosphate-glutamate (SPG) buffer at -80°C [20]. A mouse polyclonal anti-MoPn (C. muridarum strain Nigg II) antibody, which was produced in our laboratory and cross-reacting with C. trachomatis D and L2, was used as a primary antibody for both stains detection.
(§2) Cell monolayers seeded onto coverslips in a 24-well plate were infected with C. trachomatis at a multiplicity of infection (MOI) of 0.2 inclusion-forming units (IFU) per cell. Unless noted, individual compound was added into culture medium at indicated concentrations simultaneously at the time of inoculation. 0.5% DMSO was used as negative control and 11.25 μM tetracycline (Sigma-Aldrich) as positive control. For C. trachomatis D, an additional centrifugation (900 × g at room temperature for 1 h) was applied to facilitate the infection. At 36 hours postinfection (hpi), infected cells were fixed by precooled methanol and then subjected to sequential staining processed with a primary antibody and a FITC-conjugated secondary antibody. Evans blue was used as cytoplasm counterstain. Images were shot by an Olympus IX51 fluorescence microscope.
(§3) Cells monolayers seeded in 48-well plate were infected and treated with chemicals as above. After incubation for 36 hours, infected cells were washed twice, scraped off, and lysed by sonication to release the infectious progeny EBs. Then the lysates were used to reinfect fresh cell monolayers grown in 96-well plate following 1 : 10 serial dilution. The inclusion counts were obtained by immunofluorescence staining as above to calculate the number of infectious progeny EBs in each sample. Percent inhibition was calculated based on EB counts in compound-treated samples relative to DMSO-treated negative control.
(§4) Data from the three independent experiments were presented as mean ± standard deviations (SD) and were subjected to pairwise Student's t-tests. p < 0.05 and p < 0.01 are considered statistically significant and statistically highly significant, respectively. The IC50 values, defined as the concentration of compound at which the generation of infectious progeny EBs was reduced by 50% relative to negative control, were calculated by nonlinear regression from percent inhibition data using the GraphPad Prism 5 software, and presented as mean (95% confidence interval).

Assay [2] relates to Chlamydia trachomatis serovar L2 (strain 434/Bu). The experiment in a line: Infectious progeny inhibition assay, C. trachomatis L2. Format: cell-based. Here is the method: as §1, §2, §3, §4
[3] abbreviates: Chlamydia trachomatis, HeLa, generation of infectious progeny EBs in HeLa cells, MOI 0.2, 36 hpi, 1 to 32 μM, read-out: IC50 (μM) Mean (95% confidence interval) Ct L2.
Where [4] appears, read: Chlamydia trachomatis, text statements over both strains (L2 and D), infectious progeny EBs, read-out: IC50 values, statement covering both C. trachomatis L2 and D.
[5] abbreviates: generation of infectious progeny EBs in HeLa cells, MOI 0.2, 36 hpi, 1 to 32 μM, read-out: IC50 (μM) Mean (95% confidence interval) Ct L2.

Where two headings read alike, the source gives them in different places. A value given as a limit tells only on which side of the number the result lay.

The IC50 is the concentration at which inhibition is half-maximal. For the compound `c1ccc(C2C3CC(c4ccccc4)N(c4ccccc4)C3ON2c2ccccc2)cc1` (centres unmarked) [Compound 1], in the assay on C. trachomatis L2, the “Inclusions at the highest concentration” value was “few and tiny”. The “Formation (number) and growth (size) of C. trachomatis L2 inclusions” value in the assay on C. trachomatis L2 is “inhibited the formation (number) and growth (size)”. For the same compound, the IC50 in assay [1] (Chlamydia trachomatis, HeLa) was below 10 µM; in assay [1] it was 9.31 µM; in assay [2] (setting [3]), below 10 µM; in assay [2] (setting [4]), 7.25 to 9.73 µM; in assay [2] (setting [5]) it was 7.25 µM.
As to `Clc1ccc(N2C(c3ccccc3)CC3C(c4ccccc4)N(c4ccccc4)OC32)cc1` (centres unmarked) [Compound 2], in the assay with C. trachomatis L2, the “Inclusions at the highest concentration” value was “few and tiny”. The “Formation (number) and growth (size) of C. trachomatis L2 inclusions” value with C. trachomatis L2 was “inhibited the formation (number) and growth (size)”. For the same compound, the IC50 in assay [1] (Chlamydia trachomatis, HeLa) is below 10 µM; in assay [1] it was 9.73 µM; in assay [2] (setting [3]) it was below 10 µM; in assay [2] (setting [4]), 7.25 to 9.73 µM; in assay [2] (setting [5]), 8.69 µM.
